Where two headings read alike, the source gives them in different places.
Key:
EZH1 = EZH1 (Homo sapiens (Human), UniProt Q92800); assay: EZH1 methyltransferase inhibitory activity (radiometric scintillation proximity assay)
Description: The inhibitory activity of the synthesized compounds above against EZH1 or EZH2 methyltransferase was measured. The experiments were consigned to Reaction Biology, and EZH1 or EZH2 activity was measured using a radiometric scintillation proximity assay. […] The buffer solution was comprised of 50 mmol/L Tris-HCl pH 8.0, 50 mmol/L NaCl, 1 mmol/L EDTA, 1 mmoL/L DTT, 1 mmol/L PMSF and 1% DMSO. Trichloroacetic acid was added to end the reaction, and SPA beads coated with PVT streptavidin were added followed by 1 hour reaction at room temperature. A TopCount NXT plate reader was used to measure the methylation value of the substrate peptide. The measured values were converted to percent activity, setting the mean value for wells treated with DMSO as 100% and the background mean value as 0%.

KARPAS-422 cells = assay: Cell growth inhibition test (CTG method); assay type: cell-based; conditions: KARPAS-422 (EZH2^Y641N mutant), culturing for 7 days, read-out: Cell growth inhibitory activity (GI50, nM) KARPAS-422 (EZH2^Y641N mutant)
Description: The cultured cell strain was prepared at 1.8×10^4 cells/400 μL and placed in a 48-well plate.

[1] = Homo sapiens, KARPAS-422, 168 h
[2] = read-out: Enzyme inhibitory activity (IC50, nM) EZH1, 2.3 nmol/L EZH1, 90 minutes at room temperature

EZH1, sequence (Q92800 whole entry): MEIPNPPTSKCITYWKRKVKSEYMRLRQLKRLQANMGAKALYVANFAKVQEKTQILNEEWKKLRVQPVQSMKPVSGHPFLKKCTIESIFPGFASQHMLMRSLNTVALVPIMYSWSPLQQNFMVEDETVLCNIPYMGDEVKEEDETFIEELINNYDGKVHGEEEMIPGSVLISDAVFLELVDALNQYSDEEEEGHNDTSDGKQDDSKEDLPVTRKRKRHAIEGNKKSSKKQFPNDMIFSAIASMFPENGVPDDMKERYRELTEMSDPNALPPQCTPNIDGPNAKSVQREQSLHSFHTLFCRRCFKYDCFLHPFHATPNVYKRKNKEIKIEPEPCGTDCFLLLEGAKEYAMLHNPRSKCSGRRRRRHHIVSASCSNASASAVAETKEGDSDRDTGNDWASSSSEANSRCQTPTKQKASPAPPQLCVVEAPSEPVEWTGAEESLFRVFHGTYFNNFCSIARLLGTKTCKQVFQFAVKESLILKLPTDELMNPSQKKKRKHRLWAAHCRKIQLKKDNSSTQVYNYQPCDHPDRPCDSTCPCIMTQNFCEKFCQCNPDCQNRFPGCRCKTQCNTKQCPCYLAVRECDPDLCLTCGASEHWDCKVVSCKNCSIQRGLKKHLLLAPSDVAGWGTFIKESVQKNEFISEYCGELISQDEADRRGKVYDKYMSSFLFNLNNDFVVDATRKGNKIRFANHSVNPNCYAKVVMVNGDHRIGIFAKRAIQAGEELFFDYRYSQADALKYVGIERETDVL
EZH1, sequence (O75530 whole entry partner): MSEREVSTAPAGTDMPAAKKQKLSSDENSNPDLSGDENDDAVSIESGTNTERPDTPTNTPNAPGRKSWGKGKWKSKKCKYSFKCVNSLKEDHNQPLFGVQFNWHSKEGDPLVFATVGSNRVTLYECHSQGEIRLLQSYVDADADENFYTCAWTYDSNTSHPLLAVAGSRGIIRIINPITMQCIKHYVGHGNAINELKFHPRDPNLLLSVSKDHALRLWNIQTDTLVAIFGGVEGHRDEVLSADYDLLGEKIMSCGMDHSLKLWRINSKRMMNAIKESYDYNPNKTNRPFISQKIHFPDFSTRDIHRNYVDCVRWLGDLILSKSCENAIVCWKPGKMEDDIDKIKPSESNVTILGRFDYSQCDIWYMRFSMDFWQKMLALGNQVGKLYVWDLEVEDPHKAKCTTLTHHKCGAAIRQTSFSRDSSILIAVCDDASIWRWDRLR
EZH1, sequence (Q15022 whole entry partner): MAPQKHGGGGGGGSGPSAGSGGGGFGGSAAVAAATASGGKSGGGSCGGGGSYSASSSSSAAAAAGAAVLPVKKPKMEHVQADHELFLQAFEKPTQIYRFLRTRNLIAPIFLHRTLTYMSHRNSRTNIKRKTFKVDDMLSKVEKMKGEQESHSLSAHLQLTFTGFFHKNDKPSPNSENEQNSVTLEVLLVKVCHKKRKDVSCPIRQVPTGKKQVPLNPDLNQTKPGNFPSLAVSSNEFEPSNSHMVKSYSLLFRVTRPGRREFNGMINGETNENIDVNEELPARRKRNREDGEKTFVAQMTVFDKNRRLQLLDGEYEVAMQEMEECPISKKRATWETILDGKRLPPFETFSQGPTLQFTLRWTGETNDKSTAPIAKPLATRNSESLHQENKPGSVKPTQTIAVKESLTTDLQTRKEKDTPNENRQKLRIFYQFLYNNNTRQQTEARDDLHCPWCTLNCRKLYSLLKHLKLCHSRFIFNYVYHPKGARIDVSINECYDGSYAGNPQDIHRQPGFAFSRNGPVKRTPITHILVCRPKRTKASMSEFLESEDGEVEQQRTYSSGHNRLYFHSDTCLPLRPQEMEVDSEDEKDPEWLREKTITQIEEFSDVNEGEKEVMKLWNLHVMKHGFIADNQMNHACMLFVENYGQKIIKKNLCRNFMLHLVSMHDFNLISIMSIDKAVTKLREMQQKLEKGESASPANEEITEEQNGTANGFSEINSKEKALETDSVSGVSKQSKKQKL
EZH1, sequence (Q09028 whole entry partner): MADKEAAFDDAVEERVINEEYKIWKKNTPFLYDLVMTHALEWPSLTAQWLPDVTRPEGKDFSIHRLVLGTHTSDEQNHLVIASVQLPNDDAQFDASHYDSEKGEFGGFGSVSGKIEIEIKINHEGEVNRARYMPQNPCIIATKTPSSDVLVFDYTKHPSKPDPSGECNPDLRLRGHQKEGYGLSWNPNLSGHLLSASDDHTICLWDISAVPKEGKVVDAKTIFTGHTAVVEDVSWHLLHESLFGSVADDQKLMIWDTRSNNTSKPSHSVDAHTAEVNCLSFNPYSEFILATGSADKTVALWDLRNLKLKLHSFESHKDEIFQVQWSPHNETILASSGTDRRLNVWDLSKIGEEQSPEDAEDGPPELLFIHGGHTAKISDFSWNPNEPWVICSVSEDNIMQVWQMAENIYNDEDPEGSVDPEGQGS
EZH1, sequence (Q6ZN18 whole entry partner): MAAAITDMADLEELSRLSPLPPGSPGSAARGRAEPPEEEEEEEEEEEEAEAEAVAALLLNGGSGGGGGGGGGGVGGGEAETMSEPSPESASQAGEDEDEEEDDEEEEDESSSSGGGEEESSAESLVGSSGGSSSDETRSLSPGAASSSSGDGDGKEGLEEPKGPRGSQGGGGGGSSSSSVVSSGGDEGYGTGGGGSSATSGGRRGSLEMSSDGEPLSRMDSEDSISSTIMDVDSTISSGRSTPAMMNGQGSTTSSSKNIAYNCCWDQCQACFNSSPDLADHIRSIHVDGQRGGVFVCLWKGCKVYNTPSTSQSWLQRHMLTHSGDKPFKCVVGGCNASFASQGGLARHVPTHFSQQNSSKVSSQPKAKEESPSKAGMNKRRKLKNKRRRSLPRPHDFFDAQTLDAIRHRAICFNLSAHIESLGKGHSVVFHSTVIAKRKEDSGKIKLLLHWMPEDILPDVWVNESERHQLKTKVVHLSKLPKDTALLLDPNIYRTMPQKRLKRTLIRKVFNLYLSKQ

IC50 (EZH1)	GI50 (KARPAS-422 cells)	GI50 (KARPAS-422 cells; [1])	IC50 (EZH1; [2])	SMILES
15 nM	4.5 nM	–	–	Cc1cc(C)c(CN2CCc3c(Cl)c4c(c(C)c3C2=O)OC(C)(C23CCC(N(C)C)(CC2)CC3)O4)c(=O)[nH]1 (single isomer, unassigned) [Compound 2, 9-chloro-6-((4,6-dimethyl-2-oxo-1,2-dihydropyridin-3-yl)methyl)-2-(4-(dimethylamino)bicyclo[2.2.2]octan-1-yl)-2,4-dimethyl-7,8-dihydro-[1,3]dioxolo[4,5-g]isoquinolin-5(6H)-one]
17 nM	4.5 nM	–	–	COc1cc(C)[nH]c(=O)c1CN1CCc2c(Cl)c3c(c(C)c2C1=O)OC(C)(C12CCC(N(C)C)(CC1)CC2)O3 (single isomer, unassigned) [Compound 5, 9-chloro-2-(4-(dimethylamino)bicyclo[2.2.2]octan-1-yl)-6-((4-methoxy-6-methyl-2-oxo-1,2-dihydropyridin-3-yl)methyl)-2,4-dimethyl-7,8-dihydro[1,3]dioxolo[4,5-g]isoquinolin-5(6H)-one]
167 nM	3.9 nM	–	–	CSc1cc(C)[nH]c(=O)c1CN1CCc2c(Cl)c3c(c(C)c2C1=O)OC(C)(C12CCC(N(C)C)(CC1)CC2)O3 (single isomer, unassigned) [Compound 8, 9-chloro-2-(4-(dimethylamino)bicyclo[2.2.2]octan-1-yl)-2,4-dimethyl-6-((6-methyl-4-(methylthio)-2-oxo-1,2-dihydropyridin-3-yl)methyl)-7,8-dihydro[1,3]dioxolo[4,5-g]isoquinolin-5(6H)-one]
15 nM	3.8 to 12 nM	–	–	Cc1cc(C)c(CN2CCc3c(Br)c4c(c(C)c3C2=O)OC(C)(C23CCC(N(C)C)(CC2)CC3)O4)c(=O)[nH]1 (single isomer, unassigned) [Compound 11, 9-bromo-6-((4,6-dimethyl-2-oxo-1,2-dihydropyridin-3-yl)methyl)-2-(4-(dimethylamino)bicyclo[2.2.2]octan-1-yl)-2,4-dimethyl-7,8-dihydro-[1,3]dioxolo[4,5-g]isoquinolin-5(6H)-one]
12 nM	–	3.7 to 6.8 nM	–	Cc1cc(C)c(CN2CCc3c(C)c4c(c(C)c3C2=O)OC(C)(C23CCC(N(C)C)(CC2)CC3)O4)c(=O)[nH]1 (single isomer, unassigned) [Compound 23, 6-((4,6-dimethyl-2-oxo-1,2-dihydropyridin-3-yl)methyl)-2-(4-(dimethylamino)bicyclo[2.2.2]octan-1-yl)-2,4,9-trimethyl-7,8-dihydro-[1,3]dioxolo[4,5-g]isoquinolin-5(6H)-one]
8.3 to 10 nM	–	3.9 to 8.4 nM	–	Cc1cc(C)c(CN2CCc3c(c(C)c4c(c3-c3ccco3)O[C@](C)([C@H]3CC[C@H](N(C)C)CC3)O4)C2=O)c(=O)[nH]1 [Compound 30, (R)-6-((4,6-dimethyl-2-oxo-1,2-dihydropyridin-3-yl)methyl)-2-(trans-4-(dimethylamino)cyclohexyl)-9-(furan-2-yl)-2,4-dimethyl-7,8-dihydro-[1,3]dioxolo[4,5-g]isoquinolin-5(6H)-one]
–	–	3.4 nM	12 nM	Cc1cc(C)c(CN2CCc3c(c(C)c4c(c3-c3cccs3)O[C@](C)([C@H]3CC[C@H](N(C)C)CC3)O4)C2=O)c(=O)[nH]1 [Compound 32, (R)-6-((4,6-dimethyl-2-oxo-1,2-dihydropyridin-3-yl)methyl)-2-(trans-4-(dimethylamino)cyclohexyl)-2,4-dimethyl-9-(thiophen-2-yl)-7,8-dihydro-[1,3]dioxolo[4,5-g]isoquinolin-5(6H)-one]
–	–	3.7 nM	32 nM	Cc1cc(C)c(CN2CCc3c(c(C)c4c(c3-c3ccncc3)O[C@](C)([C@H]3CC[C@H](N(C)C)CC3)O4)C2=O)c(=O)[nH]1 [Compound 34, (R)-6-((4,6-dimethyl-2-oxo-1,2-dihydropyridin-3-yl)methyl)-2-(trans-4-(dimethylamino)cyclohexyl)-2,4-dimethyl-9-(pyridin-4-yl)-7,8-dihydro-[1,3]dioxolo[4,5-g]isoquinolin-5(6H)-one]
–	–	4.4 to 5.5 nM	22 nM	Cc1cc(C)c(CN2CCc3c(c(C)c4c(c3-c3ccc(C)o3)O[C@](C)([C@H]3CC[C@H](N(C)C)CC3)O4)C2=O)c(=O)[nH]1 [Compound 40, (R)-6-((4,6-dimethyl-2-oxo-1,2-dihydropyridin-3-yl)methyl)-2-(trans-4-(dimethylamino)cyclohexyl)-2,4-dimethyl-9-(5-methylfuran-2-yl)-7,8-dihydro-[1,3]dioxolo[4,5-g]isoquinolin-5(6H)-one]
–	–	5.1 nM	14 nM	Cc1cc(C)c(CN2CCc3c(c(C)c4c(c3-c3cccnc3)O[C@](C)([C@H]3CC[C@H](N(C)C)CC3)O4)C2=O)c(=O)[nH]1 [Compound 44, (R)-6-((4,6-dimethyl-2-oxo-1,2-dihydropyridin-3-yl)methyl)-2-(trans-4-(dimethylamino)cyclohexyl)-2,4-dimethyl-9-(pyridin-3-yl)-7,8-dihydro-[1,3]dioxolo[4,5-g]isoquinolin-5(6H)-one]
–	–	5.5 nM	20 nM	Cc1cc(C)c(CN2CCc3c(c(C)c4c(c3-c3cccn3C)O[C@](C)([C@H]3CC[C@H](N(C)C)CC3)O4)C2=O)c(=O)[nH]1 [Compound 48, (R)-6-((4,6-dimethyl-2-oxo-1,2-dihydropyridin-3-yl)methyl)-2-(trans-4-(dimethylamino)cyclohexyl)-2,4-dimethyl-9-(1-methyl-1H-pyrrol-2-yl)-7,8-dihydro-[1,3]dioxolo[4,5-g]isoquinolin-5(6H)-one]
–	–	4.9 nM	22 nM	Cc1cc(C)c(CN2CCc3c(c(C)c4c(c3-c3ccsc3)O[C@](C)([C@H]3CC[C@H](N(C)C)CC3)O4)C2=O)c(=O)[nH]1 [Compound 50, (R)-6-((4,6-dimethyl-2-oxo-1,2-dihydropyridin-3-yl)methyl)-2-(trans-4-(dimethylamino)cyclohexyl)-2,4-dimethyl-9-(thiophen-3-yl)-7,8-dihydro-[1,3]dioxolo[4,5-g]isoquinolin-5(6H)-one]
–	–	5.9 nM	18 nM	Cc1cc(C)c(CN2CCc3c(c(C)c4c(c3-c3cncs3)O[C@](C)([C@H]3CC[C@H](N(C)C)CC3)O4)C2=O)c(=O)[nH]1 [Compound 52, (R)-6-((4,6-dimethyl-2-oxo-1,2-dihydropyridin-3-yl)methyl)-2-(trans-4-(dimethylamino)cyclohexyl)-2,4-dimethyl-9-(thiazol-5-yl)-7,8-dihydro-[1,3]dioxolo[4,5-g]isoquinolin-5(6H)-one]

Reference: patent publication US11535629B2, “Dioxoloisoquinolinone derivatives and use thereof” (HANMI PHARMACEUTICAL CO., LTD., priority 2020, dated 2022)
